In ChEMBL document CHEMBL4346712, “Research progress in the biological activities of 3,4,5-trimethoxycinnamic acid (TMCA) derivatives” (Eur J Med Chem, 2019):
Values after ≈ are worked out from the molar mass of the structure shown.

How the values were obtained:
[1] = molecular target: 5-hydroxytryptamine receptor 6 (Homo sapiens, UniProt P50406); assay: Displacement of [3H]LSD from human 5-HT6 receptor expressed in CHO-K1 cell membranes after 60 mins
[2] = tested on: Mus musculus; assay: Antinarcotic activity in morphine-dependent C57BL/6 mouse assessed as inhibition of naloxone-induced jumping behavior in mouse at 5 mg/kg , ip after 30 mins relative to control; type: functional; conditions: C57BL/6, ip, 0.5 h
[3] = molecular target: Sodium-dependent serotonin transporter (Homo sapiens, UniProt P31645); assay: Displacement of [3H]Imipramine from human 5-HT transporter expressed in HEK-293 cell membranes after 30 mins
Sodium-dependent serotonin transporter, sequence (P31645 whole entry): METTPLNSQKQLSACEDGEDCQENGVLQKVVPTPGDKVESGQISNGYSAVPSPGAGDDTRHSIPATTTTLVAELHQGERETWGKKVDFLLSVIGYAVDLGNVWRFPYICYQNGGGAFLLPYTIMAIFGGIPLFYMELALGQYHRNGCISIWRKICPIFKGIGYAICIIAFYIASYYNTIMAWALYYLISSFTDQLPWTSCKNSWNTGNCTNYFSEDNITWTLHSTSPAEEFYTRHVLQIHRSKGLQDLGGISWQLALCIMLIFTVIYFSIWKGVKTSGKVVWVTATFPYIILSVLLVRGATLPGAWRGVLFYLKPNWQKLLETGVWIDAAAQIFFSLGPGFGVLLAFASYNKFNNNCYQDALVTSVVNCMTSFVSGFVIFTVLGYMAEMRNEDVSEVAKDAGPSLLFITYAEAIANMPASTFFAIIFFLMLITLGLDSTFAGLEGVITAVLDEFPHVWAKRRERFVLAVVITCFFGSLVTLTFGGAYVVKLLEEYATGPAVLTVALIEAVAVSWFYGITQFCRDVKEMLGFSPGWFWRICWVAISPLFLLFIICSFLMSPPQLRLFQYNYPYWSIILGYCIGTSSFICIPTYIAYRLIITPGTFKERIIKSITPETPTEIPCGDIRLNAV

[4] = molecular target: 5-hydroxytryptamine receptor 7 (Homo sapiens, UniProt P34969); assay: Displacement of [3H]LSD from human 5-HT7 receptor expressed in CHO-K1 cell membranes after 60 mins
5-hydroxytryptamine receptor 7, sequence (P34969 whole entry): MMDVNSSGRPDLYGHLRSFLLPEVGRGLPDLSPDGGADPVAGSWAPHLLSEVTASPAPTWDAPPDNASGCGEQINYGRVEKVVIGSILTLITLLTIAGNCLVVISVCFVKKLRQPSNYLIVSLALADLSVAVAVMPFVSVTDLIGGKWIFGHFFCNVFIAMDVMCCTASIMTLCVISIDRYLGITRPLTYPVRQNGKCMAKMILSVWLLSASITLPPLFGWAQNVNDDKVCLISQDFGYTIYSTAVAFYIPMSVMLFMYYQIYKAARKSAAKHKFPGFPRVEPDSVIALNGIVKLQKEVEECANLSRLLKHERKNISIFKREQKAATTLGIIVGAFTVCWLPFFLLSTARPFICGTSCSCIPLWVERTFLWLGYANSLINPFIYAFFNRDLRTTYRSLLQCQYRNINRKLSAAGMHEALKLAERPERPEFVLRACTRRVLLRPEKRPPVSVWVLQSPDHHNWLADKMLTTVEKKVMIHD

[5] = Selectivity index, ratio of CC50 for BHK21 cells to IC50 for Candida krusei ATCC 6258; type: toxicity; conditions: hamster, read-out: Ratio CC50/IC50
[6] = tested on: Platelet; assay: Antiplatelet activity in rabbit platelet rich plasma assessed as inhibition of PAF-induced platelet aggregation at 150 uM preincubated for 3 mins followed by PAF addition measured after 10 mins relative to control; type: functional; conditions: Oryctolagus cuniculus
[7] = Selectivity index, ratio of CC50 for BHK21 cells to IC50 for Staphylococcus aureus ATCC 6538; type: toxicity; conditions: hamster, read-out: Ratio CC50/IC50
[8] = tested on: Pichia kudriavzevii; assay: Antifungal activity against Candida krusei ATCC 6258 after 24 hrs by CLSI broth microdilution method; type: functional, organism-based; conditions: ATCC 6258, 24 h
[9] = tested on: Candida albicans; assay: Antifungal activity against Candida albicans ATCC 10231 after 24 hrs by CLSI broth microdilution method; type: functional, organism-based; conditions: ATCC 10231, 24 h
[10] = tested on: Platelet; assay: Antiplatelet activity in rabbit platelet rich plasma assessed as inhibition of collagen-induced platelet aggregation at 300 uM preincubated for 3 mins followed by collagen addition measured after 10 mins relative to control; type: functional; conditions: Oryctolagus cuniculus
[11] = Selectivity index, ratio of CC50 for BHK21 cells to IC50 for Candida albicans ATCC 10231; type: toxicity; conditions: hamster, read-out: Ratio CC50/IC50
[12] = Cytotoxicity against BHK21 cells assessed as reduction in cell viability after 48 hrs by MTT assay; type: cell-based, Mesocricetus auratus, BHK-21; conditions: hamster
[13] = tested on: Nakaseomyces glabratus; assay: Antifungal activity against Candida glabrata ATCC 90030 after 24 hrs by CLSI broth microdilution method; type: functional, organism-based; conditions: ATCC 90030, 24 h
[14] = tested on: Platelet; assay: Antiplatelet activity in rabbit platelet rich plasma assessed as inhibition of PAF-induced platelet aggregation at 300 uM preincubated for 3 mins followed by PAF addition measured after 10 mins relative to control; type: functional; conditions: Oryctolagus cuniculus
[15] = tested on: Platelet; assay: Antiplatelet activity in rabbit platelet rich plasma assessed as inhibition of thrombin-induced platelet aggregation at 300 uM preincubated for 3 mins followed by thrombin addition measured after 10 mins relative to control; type: functional; conditions: Oryctolagus cuniculus
[16] = tested on: Platelet; assay: Antiplatelet activity in rabbit platelet rich plasma assessed as inhibition of arachidonic acid-induced platelet aggregation at 150 uM preincubated for 3 mins followed by arachidonic acid addition measured after 10 mins relative to control; type: functional; conditions: Oryctolagus cuniculus
[17] = tested on: Candida parapsilosis; assay: Antifungal activity against Candida parapsilosis ATCC 22019 after 24 hrs by CLSI broth microdilution method; type: functional, organism-based; conditions: Lodderomyces parapsilosis, ATCC 22019, 24 h
[18] = tested on: Platelet; assay: Antiplatelet activity in rabbit platelet rich plasma assessed as inhibition of arachidonic acid-induced platelet aggregation at 300 uM preincubated for 3 mins followed by arachidonic acid addition measured after 10 mins relative to control; type: functional; conditions: Oryctolagus cuniculus
[19] = Selectivity index, ratio of CC50 for BHK21 cells to IC50 for Candida glabrata ATCC 90030; type: toxicity; conditions: hamster, read-out: Ratio CC50/IC50
[20] = tested on: Platelet; assay: Antiplatelet activity in rabbit platelet rich plasma assessed as inhibition of collagen-induced platelet aggregation at 150 uM preincubated for 3 mins followed by collagen addition measured after 10 mins relative to control; type: functional; conditions: Oryctolagus cuniculus
[21] = Selectivity index, ratio of CC50 for BHK21 cells to IC50 for Candida parapsilosis ATCC 22019; type: toxicity; conditions: hamster, read-out: Ratio CC50/IC50
[22] = tested on: Staphylococcus aureus; assay: Antibacterial activity against Staphylococcus aureus ATCC 6538 after 24 hrs by CLSI broth microdilution method; type: functional, organism-based; conditions: ATCC 6538, 24 h
[23] = tested on: Plasmodium falciparum; assay: Antiplasmodial activity against blood form of chloroquine-resistant/mefloquine-sensitive Plasmodium falciparum W2 by histidine rich protein assay; type: functional, organism-based
[24] = tested on: Plasmodium falciparum; assay: Antiplasmodial activity against blood form of chloroquine-resistant/mefloquine-sensitive Plasmodium falciparum W2 by [3H]-hypoxanthine incorporation method; type: functional, organism-based
[25] = tested on: Staphylococcus aureus; assay: Potency index, ratio of piplartine IC50 to test compound IC50 for Staphylococcus aureus ATCC 6538; type: functional
[26] = tested on: Candida tropicalis; assay: Antifungal activity against Candida tropicalis ATCC 750 after 24 hrs by CLSI broth microdilution method; type: functional, organism-based; conditions: ATCC 750, 24 h
[27] = Selectivity index, ratio of CC50 for BHK21 cells to IC50 for Candida tropicalis ATCC 750; type: toxicity; conditions: hamster, read-out: Ratio CC50/IC50
[28] = tested on: HepG2 2.2.15; assay: Cytotoxicity against human HepG2(2.2.15) cells after 24 hrs by MTT assay; type: functional; conditions: HepG2 2.2.15, 24 h
[29] = tested on: Hepatitis B virus; assay: Antiviral activity against Hepatitis B virus infected in human HepG2.2.15 cells assessed as reduction in HBsAg secretion by ELISA; type: functional, organism-based
[30] = tested on: Hepatitis B virus; assay: Antiviral activity against Hepatitis B virus infected in human HepG2.2.15 cells assessed as reduction in HBeAg secretion by ELISA; type: functional, organism-based
[31] = Cytotoxicity against […] B16 cells; type: functional, cell-based
[32] = molecular target: 5-hydroxytryptamine receptor 1A (Homo sapiens, UniProt P08908); assay: Displacement of [3H]8-OH-DPAT from 5-HT1A receptor (unknown origin) expressed in CHO-K1 cell membranes after 60 mins by microbeta counting method
5-hydroxytryptamine receptor 1A, sequence (P08908 whole entry): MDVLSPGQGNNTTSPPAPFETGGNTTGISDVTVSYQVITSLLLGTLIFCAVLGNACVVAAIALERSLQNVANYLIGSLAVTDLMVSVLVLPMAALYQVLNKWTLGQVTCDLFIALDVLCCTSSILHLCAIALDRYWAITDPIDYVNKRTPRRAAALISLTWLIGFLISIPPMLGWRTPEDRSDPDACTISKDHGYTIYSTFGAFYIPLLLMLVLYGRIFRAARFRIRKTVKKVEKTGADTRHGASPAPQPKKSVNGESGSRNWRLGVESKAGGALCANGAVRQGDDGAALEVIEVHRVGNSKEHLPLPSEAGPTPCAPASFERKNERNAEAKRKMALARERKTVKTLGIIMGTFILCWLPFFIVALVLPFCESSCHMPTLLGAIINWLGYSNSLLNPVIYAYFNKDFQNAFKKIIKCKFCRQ

[33] = molecular target: T1, Bifunctional epoxide hydrolase 2 (Homo sapiens, UniProt P34913); assay: Competitive inhibition of soluble epoxide hydrolase (unknown origin)
T1 sequence (P34913 whole entry): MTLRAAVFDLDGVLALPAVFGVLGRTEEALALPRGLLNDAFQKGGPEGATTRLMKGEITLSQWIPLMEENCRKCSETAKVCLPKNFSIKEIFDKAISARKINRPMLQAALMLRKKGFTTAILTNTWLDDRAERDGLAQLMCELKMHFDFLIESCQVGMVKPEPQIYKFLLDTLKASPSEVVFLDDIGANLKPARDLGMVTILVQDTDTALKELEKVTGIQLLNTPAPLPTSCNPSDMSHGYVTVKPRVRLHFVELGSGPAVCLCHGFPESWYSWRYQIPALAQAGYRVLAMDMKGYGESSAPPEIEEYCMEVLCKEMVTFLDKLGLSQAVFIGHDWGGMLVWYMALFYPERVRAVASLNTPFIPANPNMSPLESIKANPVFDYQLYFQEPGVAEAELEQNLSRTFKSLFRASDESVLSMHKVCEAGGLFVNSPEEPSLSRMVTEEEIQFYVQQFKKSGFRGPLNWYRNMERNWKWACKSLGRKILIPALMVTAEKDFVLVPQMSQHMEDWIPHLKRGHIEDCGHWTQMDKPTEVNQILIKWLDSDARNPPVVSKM

[34] = molecular target: T2, Bifunctional epoxide hydrolase 2 (Homo sapiens) (UniProt P34913); assay: Competitive inhibition of soluble epoxide hydrolase (unknown origin) at 100 uM relative to control
T2 sequence (whole entry): T1 sequence (P34913 whole entry)

[35] = tested on: Platelet; assay: Antiplatelet activity in rabbit platelet rich plasma assessed as inhibition of ADP-induced platelet aggregation at 30 ug/ml relative to control; type: functional; conditions: Oryctolagus cuniculus
[36] = molecular target: Platelet-activating factor receptor (Homo sapiens) (UniProt P25105); assay: Inhibition of PAF receptor (unknown origin) assessed as reduction in receptor to rabbit platelet binding at 20 ug/ml relative to control
Platelet-activating factor receptor (Homo sapiens), sequence (P25105 whole entry): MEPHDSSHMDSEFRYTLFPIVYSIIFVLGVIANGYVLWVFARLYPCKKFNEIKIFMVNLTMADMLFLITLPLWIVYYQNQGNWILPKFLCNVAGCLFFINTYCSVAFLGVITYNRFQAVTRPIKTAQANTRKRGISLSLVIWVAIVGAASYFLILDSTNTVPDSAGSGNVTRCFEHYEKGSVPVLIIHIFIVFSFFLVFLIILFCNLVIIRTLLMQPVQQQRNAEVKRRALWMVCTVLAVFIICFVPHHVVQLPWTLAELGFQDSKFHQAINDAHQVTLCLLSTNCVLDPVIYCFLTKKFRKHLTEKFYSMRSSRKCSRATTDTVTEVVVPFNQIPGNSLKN

[37] = tested on: Platelet; assay: Antiplatelet activity in rabbit platelet rich plasma assessed as inhibition of PAF-induced platelet aggregation at 50 ug/ml relative to control; type: functional; conditions: Oryctolagus cuniculus

5-hydroxytryptamine receptor 6, sequence (P50406 whole entry): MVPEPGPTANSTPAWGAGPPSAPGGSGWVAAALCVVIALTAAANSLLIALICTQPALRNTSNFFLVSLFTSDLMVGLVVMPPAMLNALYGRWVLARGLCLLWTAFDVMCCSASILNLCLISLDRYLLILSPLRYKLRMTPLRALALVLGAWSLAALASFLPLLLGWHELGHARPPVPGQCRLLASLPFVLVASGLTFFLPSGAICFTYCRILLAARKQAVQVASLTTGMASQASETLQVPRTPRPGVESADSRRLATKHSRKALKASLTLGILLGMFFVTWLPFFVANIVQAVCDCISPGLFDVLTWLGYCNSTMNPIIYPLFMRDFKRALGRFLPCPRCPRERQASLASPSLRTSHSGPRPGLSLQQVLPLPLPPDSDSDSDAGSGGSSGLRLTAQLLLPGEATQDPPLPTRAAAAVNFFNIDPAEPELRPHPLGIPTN

CCCCCCCCCCNC(=O)/C=C/c1cc(OC)c(OC)c(OC)c1
IC50 [1]: 5 µM
inhibition in vivo at 5 mg/kg [2]: 80%
IC50 [3]: 6.7 µM
IC50 [4]: 5.6 µM

COc1cc(/C=C/C(=O)N2CCC=CC2=O)cc(OC)c1OC [PIPLARTINE]
selectivity ratio [5]: 0.21
inhibition at 150 µM [6]: 100%
selectivity ratio [7]: 0.12
IC50 [8]: 189 µM
IC50 [9]: 94.6 µM
inhibition at 300 µM [10]: 100%
selectivity ratio [11]: 0.42
CC50 at 48 h [12]: 40.1 µM
IC50 [13]: 189 µM
inhibition at 300 µM [14]: 100%
inhibition at 300 µM [15]: 23.5%
inhibition at 150 µM [16]: 76.4%
IC50 [17]: 94.6 µM
inhibition at 300 µM [18]: 100%
selectivity ratio [19]: 0.21
inhibition at 150 µM [20]: 100%
selectivity ratio [21]: 0.42
IC50 [22]: 315 µM

COc1cc(/C=C/C(=O)OCC(=O)c2ccc(Cl)cc2)cc(OC)c1OC
IC50 [23]: 128 µM
IC50 [24]: 128 µM

CC(=O)Oc1ccccc1C(=O)O [ASPIRIN]
inhibition at 150 µM [6]: 0.3%
inhibition at 300 µM [10]: 5.8%
inhibition at 300 µM [14]: 0.3%
inhibition at 150 µM [16]: 75%
inhibition at 300 µM [18]: 100%

O=C(/C=C/c1ccccc1)NNC(=O)c1ccccc1
selectivity ratio [7]: 2.71
Ratio IC50 [25]: 3
IC50 [9]: 376 µM
IC50 [26]: 376 µM
selectivity ratio [11]: 0.61
CC50 at 48 h [12]: 232 µM
IC50 [13]: 376 µM
IC50 [17]: 376 µM
selectivity ratio [19]: 0.61
selectivity ratio [27]: 0.61
selectivity ratio [21]: 0.61
IC50 [22]: 85.2 µM

COc1cc(/C=C/C(=O)ON=C2C3CC4CC(C3)CC2C4)cc(OC)c1OC
CC50 [28]: 507 µM
IC50 [29]: 107 µM
IC50 [30]: 74.8 µM

COc1cc(/C=C/C(=O)N2CCOCC2)cc(OC)c1OC
selectivity ratio [5]: 3.79
IC50 [8]: 48.8 µM
IC50 [26]: 97.7 µM
CC50 at 48 h [12]: 186 µM
selectivity ratio [27]: 1.89

COc1cc2oc(=O)cc(COC(=O)/C=C/c3cc(OC)c(OC)c(OC)c3)c2cc1OC
IC50 [31]: 6.74 µg/mL (≈ 14.8 µM)

CCCCCCCCNC(=O)/C=C/c1cc(OC)c(OC)c(OC)c1
inhibition in vivo at 5 mg/kg [2]: 88%
IC50 [3]: > 10 µM

COc1cc(/C=C/C(=O)Oc2ccccc2)cc(OC)c1OC
IC50 [32]: 9.4 µM

COc1ccc(C(=O)OC[C@H]2O[C@H](O[C@]3(CO)O[C@H](CO)[C@@H](O)[C@@H]3OC(=O)/C=C/c3cc(OC)c(OC)c(OC)c3)[C@H](O)[C@@H](O)[C@@H]2O)cc1
IC50 [33]: 6.4 µM
inhibition [34]: > 100%

COc1ccc(CCNC(=O)/C=C/c2cc(OC)c(OC)c(OC)c2)cc1
inhibition at 30 µg/mL [35]: 29.1%
inhibition [36]: 19%
inhibition at 50 µg/mL [37]: 39.3%
